# Measurements reported in PMC6941952, “A homogeneous bioluminescent immunoassay to probe cellular signaling pathway regulation” (Communications Biology, 2020).
# Several values for one entry are separate records, joined by “and”; a condition that tells them apart may be missing. Identical values can stand only once.
# How the values were obtained:
# Design in all cases: species or system human
# [1] = tested on: AKT Phospho-Ser473; experiment: NanoBiT p-AKT cell-based immunoassay in MCF-7 cells; details: for P-AKT (% compared to no LY294002) / P-AKT, Raw data / P-AKT, Subtract reagent background: single replicates
# Experimental: (§1) Prior to NanoBiT Cell-Based Immunoassay, 50,000 cells were seeded in 160 µl of complete growth media per well of a 96-well plate and incubated overnight. The cells were checked under microscope and it was determined that 50,000 cells per well in 96-well plate is under 90% confluency for all cells tested. If necessary, the cell culture media were replaced with serum-free media after the cells were stably adherent on the plate and incubated overnight. To treat cells with activators or inhibitors, medium was changed to 30 µl of medium containing inhibitors. If activation of a specific pathway is needed, the cells were stimulated with 10 µl of medium containing activators. To lyse the cells, 10 µl of lysis buffer containing 0.1% digitonin diluted in 1X immunoassay buffer with protease and phosphatase inhibitors was added and the plates were mixed vigorously for 20 min. Then, 50 µl of an antibody mix containing two primary antibodies against the target protein and NanoBiT detecting antibodies (0.3 µl each per well), diluted in 1X immunoassay buffer was added to the lysates. The plates were incubated at 23 °C for 90 min, followed by the addition of 25 µl of Nano-Glo® reagent consisting of Nano-Glo® Luciferase Assay Substrate mixed with 1X immunoassay buffer. Luminescence was measured using a plate-reading luminometer.
# (§2) Single dose or dose response inhibitor treatments were performed prior to activation of the pathways as follows. For IκBα, the cells were treated in 30 µl medium with IKK16 or MG132 for 60 min before the addition of 10 µl of DMEM containing appropriate concentration of TNFα. To measure phosphorylation of AKT or STAT3, the corresponding NanoBiT immunoassays were developed with MCF-7 or A431 cells, respectively, according the same scheme used to develop the IκBα assay using the primary antibodies for AKT and STAT3 described in the reagents section. For the AKT assay, MCF-7 cells were incubated overnight in phenol-red free DMEM medium (Gibco #21063-029) without serum. Treatment with LY294002 was performed in 30 µl medium and cells were incubated for 60 min before the addition of 1 µM Insulin. To measure STAT3 phosphorylation, A431 cells were incubated overnight in DMEM medium without serum. […] After addition of the stimulators, the cells were incubated for additional times as follows. IκBα phosphorylation and degradation analyses required both time courses and single time points as described in figures. […] The NanoBiT immunoassay protocol was followed as described above.
# (§3) All 96-well assay plates were read using a GloMax® 96 Microplate Luminometer from Promega. The instrument was set to 0.5 s integration time. In order to obtain net change of signal, the reagent background values (signal from the well containing all reagent except primary antibodies) were subtracted from the sample values. To plot and analyze the data, Microsoft Excel and GraphPad Prism® Software were used. IC50 values were determined by using a nonlinear regression fit to a sigmoidal dose response (variable slope).
# [2] = tested on: total AKT; experiment: NanoBiT cell-based immunoassay, total AKT in MCF-7 cells; details: for total level of AKT protein: MCF-7 cells, insulin 1 µM 10 min, LY294002 20 µM 1 h
# Experimental: as §1, §2, §3
# [3] = tested on: STAT3 Phospho-Tyr705; experiment: NanoBiT pSTAT3 cell-based immunoassay in A431 cells; details: substance alone
# Experimental: as §1, with “The cells were checked under microscope and it was determined that 50,000 cells per well in 96-well plate is under 90% confluency for all cells tested.” left out
# as §2, with “For the AKT assay, MCF-7 cells were incubated overnight in phenol-red free DMEM medium (Gibco #21063-029) without serum.” left out
# as §3
# [4] = tested on: total STAT3; experiment: NanoBiT cell-based immunoassay, total STAT3 in A431 cells; details: substance alone
# Experimental: as §1, with “The cells were checked under microscope and it was determined that 50,000 cells per well in 96-well plate is under 90% confluency for all cells tested.” left out
# Single dose or dose response inhibitor treatments were performed prior to activation of the pathways as follows. For IκBα, the cells were treated in 30 µl medium with IKK16 or MG132 for 60 min before the addition of 10 µl of DMEM containing appropriate concentration of TNFα. To measure phosphorylation of AKT or STAT3, the corresponding NanoBiT immunoassays were developed with MCF-7 or A431 cells, respectively, according the same scheme used to develop the IκBα assay using the primary antibodies for AKT and STAT3 described in the reagents section. […] Treatment with LY294002 was performed in 30 µl medium and cells were incubated for 60 min before the addition of 1 µM Insulin. […]
# All 96-well assay plates were read using a GloMax® 96 Microplate Luminometer from Promega. […] IC50 values were determined by using a nonlinear regression fit to a sigmoidal dose response (variable slope).
# [5] = LY294002 0.00190735 uM, Insulin 1 uM
# [6] = LY294002 0.00762939 uM, Insulin 1 uM
# [7] = LY294002 0.0305176 uM, Insulin 1 uM
# [8] = LY294002 0.12207 uM, Insulin 1 uM
# [9] = LY294002 0.488281 uM, Insulin 1 uM
# [10] = LY294002 1.95312 uM, Insulin 1 uM
# [11] = LY294002 7.8125 uM, Insulin 1 uM
# [12] = LY294002 31.25 uM, Insulin 1 uM
# [13] = background subtracted, average of replicates
# [14] = substance alone, background subtracted, average of replicates
# [15] = substance alone, single replicates
compound,measurement,setting,value
"O=c1cc(N2CCOCC2)oc2c(-c3ccccc3)cccc12 [LY294002, 2-(4-morpholinyl)-8-phenyl-4H-1-benzopyran-4-one]",IC50,"[1]; Homo sapiens, MCF7, MCF-7 cells, pretreated 1 h, insulin 1 µM 10 min, read-out: IC50, inhibition of AKT phosphorylation after insulin treatment",8.89 µM
same,"P-AKT (% compared to no LY294002), Average","[1]; LY294002 0.00190735 uM, Insulin 1 uM, average of replicates",98.2%
same,P-AKT (% compared to no LY294002),[1]; [5],99.8% and 97.4% and 97.5%
same,"P-AKT, Raw data",[1]; [5],2596000 and 2655000 and 2614000
same,"P-AKT, Subtract reagent background",[1]; [5],2495800 and 2454800 and 2436800
same,"P-AKT (% compared to no LY294002), Average","[1]; LY294002 0.00762939 uM, Insulin 1 uM, average of replicates",100.2%
same,P-AKT (% compared to no LY294002),[1]; [6],101.9% and 99.8% and 98.9%
same,"P-AKT, Raw data",[1]; [6],2632000 and 2707000 and 2673000
same,"P-AKT, Subtract reagent background",[1]; [6],2548800 and 2514800 and 2473800
same,"P-AKT (% compared to no LY294002), Average","[1]; LY294002 0.0305176 uM, Insulin 1 uM, average of replicates",99.6%
same,P-AKT (% compared to no LY294002),[1]; [7],100.5% and 98.7% and 99.6%
same,"P-AKT, Raw data",[1]; [7],2646000 and 2668000 and 2645000
same,"P-AKT, Subtract reagent background",[1]; [7],2511750 and 2488750 and 2489750
same,"P-AKT (% compared to no LY294002), Average","[1]; LY294002 0.12207 uM, Insulin 1 uM, average of replicates",97.0%
same,P-AKT (% compared to no LY294002),[1]; [8],98.2% and 96.0% and 96.8%
same,"P-AKT, Raw data",[1]; [8],2577000 and 2614000 and 2578000
same,"P-AKT, Subtract reagent background",[1]; [8],2456500 and 2420500 and 2419500
same,"P-AKT (% compared to no LY294002), Average","[1]; LY294002 0.488281 uM, Insulin 1 uM, average of replicates",97.0%
same,P-AKT (% compared to no LY294002),[1]; [9],100.1% and 96.2% and 94.5%
same,"P-AKT, Raw data",[1]; [9],2521000 and 2661000 and 2582000
same,"P-AKT, Subtract reagent background",[1]; [9],2503600 and 2424600 and 2363600
same,"P-AKT (% compared to no LY294002), Average","[1]; LY294002 1.95312 uM, Insulin 1 uM, average of replicates",89.9%
same,P-AKT (% compared to no LY294002),[1]; [10],90.1% and 89.4%
same,"P-AKT, Raw data",[1]; [10],2390000 and 2409000 and 2425000
same,"P-AKT, Subtract reagent background",[1]; [10],2253650 and 2269650 and 2234650
same,"P-AKT (% compared to no LY294002), Average","[1]; LY294002 7.8125 uM, Insulin 1 uM, average of replicates",57.7%
same,P-AKT (% compared to no LY294002),[1]; [11],58.2% and 58.0% and 57.0%
same,"P-AKT, Raw data",[1]; [11],1581000 and 1612000 and 1617000
same,"P-AKT, Subtract reagent background",[1]; [11],1455800 and 1460800 and 1424800
same,"P-AKT (% compared to no LY294002), Average","[1]; LY294002 31.25 uM, Insulin 1 uM, average of replicates",11.5%
same,P-AKT (% compared to no LY294002),[1]; [12],11.5% and 11.7% and 11.4%
same,"P-AKT, Raw data",[1]; [12],439900 and 442300 and 448200
same,"P-AKT, Subtract reagent background",[1]; [12],288200 and 294100 and 285800
same,"P-AKT (% compared to no LY294002), Average","[1]; LY294002 500 uM, Insulin 1 uM, average of replicates",1.5%
same,P-AKT (% compared to no LY294002),"[1]; LY294002 500 uM, Insulin 1 uM",1.5% and 1.4% and 1.6%
same,"P-AKT, Raw data","[1]; LY294002 500 uM, Insulin 1 uM",166500 and 165600 and 161400
same,"P-AKT, Subtract reagent background","[1]; LY294002 500 uM, Insulin 1 uM",38600 and 34400 and 39500
same,"P-AKT (% compared to no LY294002), Average","[1]; LY294002 […], Insulin 1 uM, average of replicates",1.8%
same,insulin-induced increase in AKT phosphorylation,"[1]; MCF-7 cells, 20 µM 1 h pretreatment, insulin 1 µM 10 min",suppressed
same,total level of AKT protein,[2],stayed constant
IL-6,"P-STAT3, Average",[3]; [13],418850
same,P-STAT3 Raw data,[3]; single replicates,458600 and 528900 and 577100
same,P-STAT3 Subtract reagent background,[3]; single replicates,355917 and 426217 and 474417
same,"Total STAT3, Average",[4]; [13],1196983
same,"Total Stat3, Raw data",[4]; single replicates,1090000 and 1448000
same,"Total Stat3, Subtract reagent background",[4]; single replicates,1345317 and 987317
"insulin: Insulin (#I-0516) from Sigma-Aldrich, AKT pathway stimulator",AKT phosphorylation over the level in non-treated cells,"[1]; MCF-7 cells, insulin 1 µM 10 min",more than 20 fold
same,"P-AKT, Average",[1]; [14],2201625
same,"P-AKT, Raw data",[1]; substance alone,2263000 and 2421000 and 2357000 and 2406000
same,"P-AKT, Subtract reagent background",[1]; substance alone,2102700 and 2260800 and 2195400 and 2247600
same,total level of AKT protein,[2],stayed constant
same,"Total AKT, Average",[2]; [14],108225
same,"Total AKT, Raw data",[2]; [15],265700 and 270200 and 257000 and 278000
same,"Total AKT, Subtract reagent background",[2]; [15],121700 and 104800 and 109800 and 96600
